Test results as given in the NIST ThermoML archive (doi:10.1021/je200790q).
± gives the expanded uncertainty stated by the source.

Tests used:
[1] = 101.33 kPa, Liquid; for mass density: Vibrating tube method
[2] = molar heat capacity at constant pressure; settings: 298.15 K; 101.33 kPa; Liquid; Drop calorimetry
[3] = refractive index (Na D-line) (dimensionless); settings: 101.33 kPa, Liquid, Standard Abbe refractometry

CCn1cc[n+](C)c1.CS(=O)(=O)[O-] [1-ethyl-3-methylimidazolium methanesulfonate]
Settings | mass density, [1] [kg/m3] | refractive index, [3] | viscosity, [1] [mPa·s]
278.15 K | 1257.1 ± 2 | – | 805.33 ± 79
283.15 K | 1253.3 ± 2 | – | 505.92 ± 42
288.15 K | 1249.5 ± 2 | – | 336.04 ± 23
288.37 K | – | 1.49823 ± 0.00053 | –
293.15 K | 1245.9 ± 2 | – | 232.44 ± 13
293.28 K | – | 1.49682 ± 0.00053 | –
298.15 K | 1242.4 ± 2 | – | 166.59 ± 7.4
298.19 K | – | 1.49542 ± 0.00053 | –
303.1 K | – | 1.49399 ± 0.00053 | –
303.15 K | 1239 ± 2 | – | 123.14 ± 4.2
308.01 K | – | 1.49254 ± 0.00053 | –
308.15 K | 1235.6 ± 2 | – | 93.48 ± 2.3
312.91 K | – | 1.49114 ± 0.00053 | –
313.15 K | 1232.2 ± 2 | – | 72.64 ± 1.3
318.15 K | 1228.8 ± 2 | – | 57.62 ± 0.66
323.15 K | 1225.5 ± 2 | – | 46.54 ± 0.59
328.15 K | 1222.2 ± 2 | – | 38.2 ± 0.47
333.15 K | 1218.9 ± 2 | – | 31.81 ± 0.38
338.15 K | 1215.6 ± 2 | – | 26.84 ± 0.32
343.15 K | 1212.3 ± 2 | – | 22.9 ± 0.27
348.15 K | 1209.1 ± 2 | – | 19.75 ± 0.23
353.15 K | 1205.9 ± 2 | – | 17.19 ± 0.2
358.15 K | 1202.8 ± 2 | – | 15.08 ± 0.17
363.15 K | 1199.7 ± 2 | – | 13.33 ± 0.15

Settings | molar heat capacity at constant pressure [J/K/mol]
[2] | 345.52 ± 10

CCn1cc[n+](C)c1.N#C[S-] [1-ethyl-3-methylimidazolium thiocyanate]
Settings | mass density, [1] [kg/m3] | refractive index, [3] | viscosity, [1] [mPa·s]
278.15 K | 1129.7 ± 2 | – | 54.57 ± 0.55
283.15 K | 1126.5 ± 2 | – | 43.51 ± 0.57
288.15 K | 1123.3 ± 2 | – | 35.36 ± 0.45
293.15 K | 1120.1 ± 2 | – | 29.21 ± 0.36
298.15 K | 1117 ± 2 | – | 24.5 ± 0.29
303.15 K | 1113.9 ± 2 | – | 20.79 ± 0.24
308.15 K | 1110.8 ± 2 | – | 17.86 ± 0.21
313.15 K | 1107.8 ± 2 | – | 15.49 ± 0.18
318.15 K | 1104.8 ± 2 | – | 13.56 ± 0.15
323.15 K | 1101.8 ± 2 | – | 11.97 ± 0.14
328.15 K | 1098.8 ± 2 | – | 10.64 ± 0.12
332.55 K | – | 1.53909 ± 0.00054 | –
333.15 K | 1095.9 ± 2 | – | 9.528 ± 0.11
334.52 K | – | 1.5385 ± 0.00053 | –
336.48 K | – | 1.53794 ± 0.00053 | –
338.15 K | 1093 ± 2 | – | 8.582 ± 0.096
338.44 K | – | 1.53739 ± 0.00053 | –
340.41 K | – | 1.53682 ± 0.00052 | –
342.37 K | – | 1.53636 ± 0.00051 | –
343.15 K | 1090.1 ± 2 | – | 7.773 ± 0.087
348.15 K | 1087.2 ± 2 | – | 7.076 ± 0.08
353.15 K | 1084.3 ± 2 | – | 6.472 ± 0.073
358.15 K | 1081.5 ± 2 | – | 5.945 ± 0.068
363.15 K | 1078.7 ± 2 | – | 5.485 ± 0.063

Settings | molar heat capacity at constant pressure [J/K/mol]
[2] | 281.45 ± 8.4

CCn1cc[n+](C)c1.COP(=O)([O-])OC [1-ethyl-3-methylimidazolium dimethylphosphate]
Settings | mass density, [1] [kg/m3] | refractive index, [3] | viscosity, [1] [mPa·s]
298.19 K | – | 1.48175 ± 0.00051 | –
303.1 K | – | 1.4805 ± 0.00052 | –
303.15 K | 1213.9 ± 2 | – | 192.68 ± 9.3
308.01 K | – | 1.47909 ± 0.00053 | –
308.15 K | 1210.5 ± 2 | – | 144.32 ± 5.6
312.91 K | – | 1.47771 ± 0.00053 | –
313.15 K | 1207.1 ± 2 | – | 110.51 ± 3.3
317.82 K | – | 1.47636 ± 0.00052 | –
318.15 K | 1203.8 ± 2 | – | 86.32 ± 1.9
322.73 K | – | 1.47511 ± 0.00052 | –
323.15 K | 1200.5 ± 2 | – | 68.64 ± 1
327.64 K | – | 1.47384 ± 0.00052 | –
328.15 K | 1197.2 ± 2 | – | 55.46 ± 0.58
333.15 K | 1193.9 ± 2 | – | 45.47 ± 0.56
338.15 K | 1190.6 ± 2 | – | 37.78 ± 0.46
343.15 K | 1187.4 ± 2 | – | 31.76 ± 0.38
348.15 K | 1184.2 ± 2 | – | 26.99 ± 0.31
353.15 K | 1181 ± 2 | – | 23.17 ± 0.27
358.15 K | 1177.8 ± 2 | – | 20.07 ± 0.23
363.15 K | 1174.7 ± 2 | – | 17.53 ± 0.2

Settings | molar heat capacity at constant pressure [J/K/mol]
[2] | 411.78 ± 12

CCn1cc[n+](C)c1.N#CN=C=[N-] [1-ethyl-3-methylimidazolium dicyanamide]
Settings | mass density, [1] [kg/m3] | refractive index, [3] | viscosity, [1] [mPa·s]
278.15 K | 1117.9 ± 2 | – | 32.51 ± 0.39
283.15 K | 1114.3 ± 2 | – | 26.67 ± 0.33
288.15 K | 1110.9 ± 2 | – | 22.23 ± 0.27
288.37 K | – | 1.51745 ± 0.00055 | –
293.15 K | 1107.4 ± 2 | – | 18.79 ± 0.22
293.28 K | – | 1.51585 ± 0.00055 | –
298.15 K | 1104 ± 2 | – | 16.09 ± 0.19
298.19 K | – | 1.51428 ± 0.00055 | –
303.1 K | – | 1.51269 ± 0.00055 | –
303.15 K | 1100.6 ± 2 | – | 13.92 ± 0.16
308.01 K | – | 1.51112 ± 0.00055 | –
308.15 K | 1097.3 ± 2 | – | 12.16 ± 0.14
312.91 K | – | 1.50956 ± 0.00055 | –
313.15 K | 1094 ± 2 | – | 10.72 ± 0.12
318.15 K | 1090.7 ± 2 | – | 9.519 ± 0.11
323.15 K | 1087.4 ± 2 | – | 8.518 ± 0.096
328.15 K | 1084.2 ± 2 | – | 7.673 ± 0.087
333.15 K | 1081 ± 2 | – | 6.951 ± 0.079
338.15 K | 1077.8 ± 2 | – | 6.327 ± 0.072
343.15 K | 1074.7 ± 2 | – | 5.788 ± 0.066
348.15 K | 1071.6 ± 2 | – | 5.319 ± 0.062
353.15 K | 1068.5 ± 2 | – | 4.909 ± 0.057
358.15 K | 1065.4 ± 2 | – | 4.548 ± 0.053
363.15 K | 1062.3 ± 2 | – | 4.229 ± 0.05

Settings | molar heat capacity at constant pressure [J/K/mol]
[2] | 314.63 ± 9.4
